Measurements: patent publication USRE40086E1, “Method for treating bacterial infection with novel 7-substituted-9-substituted amino 6-demethyl-6-deoxytetracyclines” (Wyeth Holdings Corporation, priority 1991, dated 2008)
In brackets after ≈: the same amount, converted by molar mass.

Experiments:
Assay in all cases: MIC, agar dilution
Type in all cases: cell-based
[1] = test system: S. haemolyticus AVAH 88-3; conditions: S. haemolyticus AVAH 88-3
[2] = test system: E. coli UBMS 89-2 (Sensitive); conditions: E. coli UBMS 89-2 (Sensitive)
[3] = test system: S. aureus ATCC 29213 (Sensitive); conditions: S. aureus ATCC 29213 (Sensitive)
E. faecalis ATCC 29212 = conditions: E. faecalis ATCC 29212
E. faecalis 12201 = conditions: E. faecalis 12201
E. coli ATCC 25922 = conditions: E. coli ATCC 25922
[4] = test system: S. aureus UBMS 88-5 (tetM); conditions: S. aureus UBMS 88-5 (tetM)
[5] = test system: S. aureus UBMS 90-2 (tetM); conditions: S. aureus UBMS 90-2 (tetM)
[6] = test system: S. aureus IVES 1983 (meth. resistant); conditions: S. aureus IVES 1983 (meth. resistant)
[7] = test system: S. aureus UBMS 90-3 (Sensitive); conditions: S. aureus UBMS 90-3 (Sensitive)
[8] = test system: S. aureus IVES 2943 (meth. resistant); conditions: S. aureus IVES 2943 (meth. resistant)
[9] = test system: S. aureus Smith (Sensitive); conditions: S. aureus Smith (Sensitive)
[10] = test system: S. aureus UBMS 88-4 (Sensitive); conditions: S. aureus UBMS 88-4 (Sensitive)
[11] = test system: S. aureus UBMS 90-1 (tetM); conditions: S. aureus UBMS 90-1 (tetM)
E. coli UBMS 89-1 (tetM) = conditions: E. coli UBMS 89-1 (tetM)
[12] = test system: S. aureus UBMS 88-7 (tetK); conditions: S. aureus UBMS 88-7 (tetK)
E. coli UBMS 88-1 (tetB) = conditions: E. coli UBMS 88-1 (tetB)
[13] = test system: E. coli UBMS 88-2 (Sensitive); conditions: E. coli UBMS 88-2 (Sensitive)

Row | SMILES | MIC [1] [µg/mL] | MIC [2] [µg/mL] | MIC [3] | MIC (E. faecalis ATCC 29212) [µg/mL] | MIC (E. faecalis 12201) [µg/mL] | MIC (E. coli ATCC 25922) [µg/mL] | MIC [4] [µg/mL] | MIC [5] [µg/mL] | MIC [6] [µg/mL] | MIC [7] [µg/mL] | MIC [8] [µg/mL] | MIC [9] [µg/mL] | MIC [10] | MIC [11] [µg/mL] | MIC (E. coli UBMS 89-1 (tetM)) [µg/mL] | MIC [12] [µg/mL] | MIC (E. coli UBMS 88-1 (tetB)) [µg/mL] | MIC [13] [µg/mL]
1 | COC(=O)Nc1cc(N(C)C)c2c(c1O)C(=O)C1=C(O)[C@]3(O)C(=O)C(C(N)=O)=C(O)[C@@H](N(C)C)C3CC1C2 (stereo partly drawn) [HH, [7S-(7α,10aα)]-[9-(Aminocarbonyl)-4,7-bis(dimethylamino)-5,5a,6,6a,7,10,10a,12-octahydro-1,8,10a,11-tetrahydroxy-10,12-dioxo-2-naphthacenyl]carbamic acid methyl ester] | 0.25 (≈ 0.471 µM) | 4 (≈ 7.54 µM) | ≦0.015 μg/ml | 0.25 (≈ 0.471 µM) | 2 (≈ 3.77 µM) | 2 (≈ 3.77 µM) | 0.25 (≈ 0.471 µM) | 0.25 (≈ 0.471 µM) | 2 (≈ 3.77 µM) | 0.03 (≈ 0.0565 µM) | 2 (≈ 3.77 µM) | 0.03 (≈ 0.0565 µM) | 0.03 µg/mL (≈ 0.0565 µM) | 1 (≈ 1.88 µM) | 4 (≈ 7.54 µM) | 0.5 (≈ 0.942 µM) | 16 (≈ 30.2 µM) | –
2 | CN(C)c1cc(NS(=O)(=O)c2ccccc2)c(O)c2c1CC1CC3C(N(C)C)C(O)=C(C(N)=O)C(=O)C3(O)C(O)=C1C2=O (stereo not drawn) [CC, 7-(Dimethylamino)-9-[(phenylsulfonyl)amino]-6-demethyl-6-deoxytetracycline] | 4 (≈ 6.53 µM) | 16 (≈ 26.1 µM) | ≦0.015 μg/ml | 0.06 (≈ 0.0979 µM) | – | 2 (≈ 3.26 µM) | 4 (≈ 6.53 µM) | 0.06 (≈ 0.0979 µM) | 4 (≈ 6.53 µM) | 4 (≈ 6.53 µM) | 4 (≈ 6.53 µM) | 4 (≈ 6.53 µM) | 0.03 µg/mL (≈ 0.049 µM) | 4 (≈ 6.53 µM) | – | 4 (≈ 6.53 µM) | 16 (≈ 26.1 µM) | 8 (≈ 13.1 µM)
3 | CN(C)c1cc(NS(C)(=O)=O)c(O)c2c1CC1CC3C(N(C)C)C(O)=C(C(N)=O)C(=O)C3(O)C(O)=C1C2=O (stereo not drawn) [FF, 7-(Dimethylamino)-9-[(methylsulfonyl)amino]-6-demethyl-6-deoxytetracycline] | – | 2 (≈ 3.63 µM) | 0.03 µg/mL (≈ 0.0545 µM) | 0.06 (≈ 0.109 µM) | – | 2 (≈ 3.63 µM) | 0.25 (≈ 0.454 µM) | 0.06 (≈ 0.109 µM) | 16 (≈ 29.1 µM) | 0.12 (≈ 0.218 µM) | 16 (≈ 29.1 µM) | 0.12 (≈ 0.218 µM) | 0.25 µg/mL (≈ 0.454 µM) | 0.25 (≈ 0.454 µM) | – | 8 (≈ 14.5 µM) | 8 (≈ 14.5 µM) | 2 (≈ 3.63 µM)
4 | CN(C)c1cc(NS(=O)(=O)c2cccs2)c(O)c2c1CC1CC3C(N(C)C)C(O)=C(C(N)=O)C(=O)C3(O)C(O)=C1C2=O (stereo not drawn) [DD, 7-(Dimethylamino)-9-[(2-thienylsulfonyl)amino)-6-demethyl-6-deoxytetracycline] | 2 (≈ 3.23 µM) | 16 (≈ 25.9 µM) | 0.03 µg/mL (≈ 0.0485 µM) | 0.25 (≈ 0.404 µM) | – | 4 (≈ 6.47 µM) | 0.5 (≈ 0.808 µM) | 0.25 (≈ 0.404 µM) | 4 (≈ 6.47 µM) | 0.25 (≈ 0.404 µM) | 4 (≈ 6.47 µM) | 0.03 (≈ 0.0485 µM) | 0.5 µg/mL (≈ 0.808 µM) | 1 (≈ 1.62 µM) | – | 2 (≈ 3.23 µM) | 32 (≈ 51.7 µM) | 8 (≈ 12.9 µM)
5 | CC(=O)Nc1cc(N(C)C)c2c(c1O)C(=O)C1=C(O)[C@]3(O)C(=O)C(C(N)=O)=C(O)[C@@H](N(C)C)[C@@H]3C[C@@H]1C2 [B, 9-(Acetylamino)-7-(dimethylamino)-6-demethyl-6-deoxytetracycline] | – | – | 0.12 µg/mL (≈ 0.233 µM) | 0.12 (≈ 0.233 µM) | 0.5 (≈ 0.972 µM) | 2 (≈ 3.89 µM) | 0.12 (≈ 0.233 µM) | – | – | – | 64 (≈ 124 µM) | 0.12 (≈ 0.233 µM) | ≦0.06 μg/ml | – | – | 4 (≈ 7.77 µM) | >128 | 2 (≈ 3.89 µM)
6 | CN(C)c1cc(NS(=O)(=O)c2cccc([N+](=O)[O-])c2)c(O)c2c1CC1CC3C(N(C)C)C(O)=C(C(N)=O)C(=O)C3(O)C(O)=C1C2=O (stereo not drawn) [BB] | 4 (≈ 6.08 µM) | 16 (≈ 24.3 µM) | 0.06 µg/mL (≈ 0.0912 µM) | 0.12 (≈ 0.182 µM) | – | 2 (≈ 3.04 µM) | – | 0.5 (≈ 0.76 µM) | 8 (≈ 12.2 µM) | 0.12 (≈ 0.182 µM) | 4 (≈ 6.08 µM) | 0.25 (≈ 0.38 µM) | 1 µg/mL (≈ 1.52 µM) | 2 (≈ 3.04 µM) | – | 4 (≈ 6.08 µM) | >32 | 4 (≈ 6.08 µM)
